Here are results for 16 compounds from PubChem BioAssay AID810 (The Scripps Research Institute Molecular Screening Center, 2007).

Calls of active or inactive are those of the source. No rule for the calls is given here.

The term IC50 denotes the concentration at which inhibition is half-maximal.

Sequence of Focal adhesion kinase 1 (Homo sapiens) (Q05397 whole entry, looked up): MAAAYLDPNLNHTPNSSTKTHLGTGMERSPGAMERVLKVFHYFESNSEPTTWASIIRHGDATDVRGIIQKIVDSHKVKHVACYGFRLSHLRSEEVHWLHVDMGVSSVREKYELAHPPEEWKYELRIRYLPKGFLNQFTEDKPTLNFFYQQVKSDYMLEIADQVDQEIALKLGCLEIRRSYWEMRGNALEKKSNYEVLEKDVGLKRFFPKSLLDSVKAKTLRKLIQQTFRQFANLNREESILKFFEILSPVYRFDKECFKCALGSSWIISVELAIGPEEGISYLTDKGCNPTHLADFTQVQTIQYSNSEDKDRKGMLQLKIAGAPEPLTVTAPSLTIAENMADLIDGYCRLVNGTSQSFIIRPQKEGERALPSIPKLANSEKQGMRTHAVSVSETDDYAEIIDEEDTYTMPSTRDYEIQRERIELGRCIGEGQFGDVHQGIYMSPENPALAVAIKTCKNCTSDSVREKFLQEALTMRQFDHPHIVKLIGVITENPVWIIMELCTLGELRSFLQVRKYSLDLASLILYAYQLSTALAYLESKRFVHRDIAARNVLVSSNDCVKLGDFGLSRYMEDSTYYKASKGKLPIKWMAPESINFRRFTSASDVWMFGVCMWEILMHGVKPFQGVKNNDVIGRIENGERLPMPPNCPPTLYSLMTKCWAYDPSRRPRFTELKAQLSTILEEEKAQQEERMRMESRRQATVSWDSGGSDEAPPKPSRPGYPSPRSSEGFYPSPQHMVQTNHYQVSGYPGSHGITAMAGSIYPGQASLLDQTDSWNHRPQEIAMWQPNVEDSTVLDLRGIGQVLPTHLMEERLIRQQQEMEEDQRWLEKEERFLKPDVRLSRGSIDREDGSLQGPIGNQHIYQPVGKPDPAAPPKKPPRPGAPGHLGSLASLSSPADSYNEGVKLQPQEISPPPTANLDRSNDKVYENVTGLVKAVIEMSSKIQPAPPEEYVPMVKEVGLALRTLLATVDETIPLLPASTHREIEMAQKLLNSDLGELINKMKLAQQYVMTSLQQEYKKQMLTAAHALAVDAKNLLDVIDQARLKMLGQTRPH

The test addresses Focal adhesion kinase 1 (Homo sapiens) (UniProt Q05397). In words: FAK kinase inhibitor potency, dose response, biochemical (AID 810). The following applies: Recombinant FAK kinase activity inhibition assay.
With `COCCOC(=O)C1=C(C)NC2=C(C(=O)CC(c3cccs3)C2)C1c1ccsc1` (stereo unspecified), the IC50 is > 70 µM (inactive).
Then `CCOC(=O)c1sc2c(c1C)C(c1cccs1)C1=C(CCCC1=O)N2` (stereo unspecified), with > 70 µM (inactive); and `O=c1c(/C=N/O)c(Nc2ccccc2)nc2ccccn12`, with “inactive”.
In the case of `O=C1C(c2ccnc3ccccc23)=C(O)c2ccccc21`, the IC50 was 5.64 µM.
On to `COc1cc(N=Cc2c(O)[nH]c3ccccc23)cc(OC)c1OC`, for which the IC50 was 3.13 µM.
With `CN1CCc2c(sc3ncn4nc(-c5ccccc5O)nc4c23)C1`, the IC50 entry was “inactive”.
Regarding `N#Cc1ccccc1/C=N/Nc1nc(-c2ccccc2)c2cc(Cl)ccc2n1`, the IC50 result was “inactive”.
On to `CCOC(=O)C1=C(c2ccccc2)OC(N)=C(C#N)C1c1cccs1` (stereo unspecified), for which the IC50 was > 70 µM (inactive).
Then `CCOC(=O)c1cccc2c1-c1ccccc1/C2=N/O`, with “inactive”; and `O=[N+]([O-])c1cc(/C=N\Nc2nccs2)ccc1O`, with 5.82 µM; and `COc1cccc(CN2CC(O)=C(c3nc(-c4ccc(Cl)cc4)cs3)C2=N)c1`, with “inactive”.
Turning to `COC(=O)c1cccc2c1-c1ccccc1/C2=N/O`, the IC50 was 9.43 µM.
Then `COC(=O)C1=C(C)NC2=C(C(=O)CC(c3cccs3)C2)C1c1ccsc1` (stereo unspecified), with > 70 µM (inactive).
Then `CCOCCOC(=O)C1=C(C)NC2=C(C(=O)CC(c3cccs3)C2)C1c1ccsc1` (stereo unspecified), with > 70 µM (inactive); and `Cc1nn2c(c1-c1ccccc1)NC1=C(C(=O)CCC1)C2c1ccccc1` (stereo unspecified), with > 70 µM (inactive); and `CCOC(=O)C1=C(c2ccccc2)OC(N)=C(C#N)C1C1CCCCC1` (stereo unspecified), with > 70 µM (inactive).
